Several values for one entry are separate records, joined by “and”; a condition that tells them apart may be missing. Equal values may be shown once.
Tests used:
[1] = system: pyramidal cell layer of CA1, hippocampus slices; test: hippocampus slice, provocation with bicuculline; design: species or system rat; settings: bicuculline 50 μM alone, mean of 4 slices, one mean per series
Source text: (§1) Hippocampus slices were obtained from 11 adult male Sprague-Dawlay rats (Charles River Wiga, Sulzbach, Germany). Rats were kept under a reversed day-night cycle for 2 weeks prior start of the experiments, to allow recording of in-vitro activity from slices during the active phase of their circadian rhythm (Dimpfel et al., 1994, Dimpfel et al., 1995). Animals were exsanguinated under ether anaesthesia, the brain was removed in total and the hippocampal formation was isolated under microstereoscopic sight. The midsection of the hippocampus was fixed to the table of a vibrating microtome (Rhema Labortechnik, Hofheim, Germany) using a cyanoacrylate adhesive, submerged in chilled bicarbonate-buffered saline (artificial cerebro spinal fluid (ACSF) NaCl: 124 mM; KCl: 5 mM; CaCl2: 2 mM; MgSO4: 2 mM; NaHCO3: 26 mM; and glucose: 10 mM), and cut into slices of 400 μm thickness. All slices were preincubated for at least 1 h in carbogen ([…])-saturated ACSF (pH 7.4) in a prechamber before use (see also Dimpfel et al., 1991).
During the experiment the slices were held and treated in a special Superfusion chamber (List Electronics, Darmstadt, Germany) at 35° C. according to Haas et al., 1979 (see also: Schiff and Somjen, 1985). Four slices were used from one rat per day under one of the test conditions (control or various concentrations of the S1 compound). […]

[2] = system: pyramidal cell layer of CA1, hippocampus slices; test: hippocampus slice, provocation with pentylenetetrazol; design: species or system rat; settings: PTZ 50 μM alone
Source text: as §1
During the experiment the slices were held and treated in a special Superfusion chamber (List Electronics, Darmstadt, Germany) at 35° C. according to Haas et al., 1979 (see also: Schiff and Somjen, 1985). Four slices were used from one rat per day under one of the test conditions (control or various concentrations of the S1 compound). The preparation was superfused with artificial cerebrospinal fluid (ACSF) at 180-230 ml/h. Electrical stimulation (200 μA constant current pulses of 200 μs pulse width) of the Schaffer Collaterals within the […] area and recording of extracellular field potentials from the pyramidal cell layer of CA1 (Dimpfel et al., 1991) as shown in FIG. 4 and FIG. 5 was performed according to conventional electrophysiological methods using the “Labteam” Computer system and “NeuroTool” software package (Medisyst GmbH, Linden, Germany). Measurements were performed at 10 min intervals to avoid potentiation mechanisms. Four stimulations—each 20 seconds apart—were averaged for each time point. […]

Compound	population spike amplitude in % of ACSF value, Bicuculline 50 μM, mean (X) [1]	population spike amplitude in % of ACSF value, PTZ 50 μM, mean (X) ([2]; mean of 4 slices) [%]	population spike amplitude, PTZ 50 μM, mean (X) ([2]; mean of 4 slices) [μV]	population spike amplitude in % of ACSF value, PTZ 50 μM ([2]; single slices)
CN1CCc2cc3c(cc2[C@H]1[C@@H]1OC(=O)c2c1ccc1c2OCO1)OCO3 [Bicuculline]	256.6% and 248.7% and 237.6% and 249.6%			
C1CCc2nnnn2CC1 [PTZ, 6,7,8,9-tetrahydro-5h-tetrazolo(1,5-a)azepine]		243.9	−2854.9	254.2% and 244.7% and 232.8% and 243.7%

Source: patent US20090252786A1, “Use of a Biologically Active Blood Serum for the Treatment of a Disorder Characterized in a Reduced Function of a GABA Receptor” (priority 2008, published 2009)
